# According to ChEMBL document CHEMBL1201862, “PubChem BioAssay data set” (2004):
# Calls of active or inactive are those of the source. Cut-off read from the data, not from the text of the source, for most assays here: actives have a measured IC50 and inactives only a lower limit.
# Legend:
# [1] = cytotoxicity in HPDE-C7 cells, cell-based, fluorescence, HTS (AID 430); type: functional; settings: Homo sapiens
# [2] = cytotoxicity in KRAS-transformed pancreatic duct cells, primary screen, cell-based, fluorescence, HTS (AID 431); type: functional; settings: Homo sapiens;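 note: cell line used: HPDE-C7K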
# [3] = target: Peroxisome proliferator-activated receptor gamma/Nuclear receptor corepressor 2 (Homo sapiens, UniProt P37231+Q9Y618); assay: Counterscreen for NR2E3 inverse agonists: TR-FRET-based biochemical high throughput dose response assay to identify inverse agonists of the interaction between peroxisome proliferator-activated receptor gamma (PPARg) and nuclear receptor co-repressor 2 (NCOR2).; type: functional
# Sequence of Peroxisome proliferator-activated receptor gamma/Nuclear receptor corepressor 2 (P37231 whole entry): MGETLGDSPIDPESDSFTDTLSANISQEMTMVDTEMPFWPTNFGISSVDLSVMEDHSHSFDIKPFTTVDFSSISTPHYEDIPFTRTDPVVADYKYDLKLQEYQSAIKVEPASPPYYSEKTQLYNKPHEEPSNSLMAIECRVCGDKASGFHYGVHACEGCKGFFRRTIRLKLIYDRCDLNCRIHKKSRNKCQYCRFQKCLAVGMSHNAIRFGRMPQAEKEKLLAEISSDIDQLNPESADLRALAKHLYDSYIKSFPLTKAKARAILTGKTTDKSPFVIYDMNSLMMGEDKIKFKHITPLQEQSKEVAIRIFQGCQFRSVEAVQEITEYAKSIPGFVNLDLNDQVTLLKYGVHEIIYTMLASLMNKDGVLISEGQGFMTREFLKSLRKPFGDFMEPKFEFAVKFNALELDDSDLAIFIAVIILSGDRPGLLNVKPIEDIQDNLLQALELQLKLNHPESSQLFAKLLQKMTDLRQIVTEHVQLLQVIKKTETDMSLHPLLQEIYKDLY
# Sequence of Peroxisome proliferator-activated receptor gamma/Nuclear receptor corepressor 2 (Q9Y618 whole entry): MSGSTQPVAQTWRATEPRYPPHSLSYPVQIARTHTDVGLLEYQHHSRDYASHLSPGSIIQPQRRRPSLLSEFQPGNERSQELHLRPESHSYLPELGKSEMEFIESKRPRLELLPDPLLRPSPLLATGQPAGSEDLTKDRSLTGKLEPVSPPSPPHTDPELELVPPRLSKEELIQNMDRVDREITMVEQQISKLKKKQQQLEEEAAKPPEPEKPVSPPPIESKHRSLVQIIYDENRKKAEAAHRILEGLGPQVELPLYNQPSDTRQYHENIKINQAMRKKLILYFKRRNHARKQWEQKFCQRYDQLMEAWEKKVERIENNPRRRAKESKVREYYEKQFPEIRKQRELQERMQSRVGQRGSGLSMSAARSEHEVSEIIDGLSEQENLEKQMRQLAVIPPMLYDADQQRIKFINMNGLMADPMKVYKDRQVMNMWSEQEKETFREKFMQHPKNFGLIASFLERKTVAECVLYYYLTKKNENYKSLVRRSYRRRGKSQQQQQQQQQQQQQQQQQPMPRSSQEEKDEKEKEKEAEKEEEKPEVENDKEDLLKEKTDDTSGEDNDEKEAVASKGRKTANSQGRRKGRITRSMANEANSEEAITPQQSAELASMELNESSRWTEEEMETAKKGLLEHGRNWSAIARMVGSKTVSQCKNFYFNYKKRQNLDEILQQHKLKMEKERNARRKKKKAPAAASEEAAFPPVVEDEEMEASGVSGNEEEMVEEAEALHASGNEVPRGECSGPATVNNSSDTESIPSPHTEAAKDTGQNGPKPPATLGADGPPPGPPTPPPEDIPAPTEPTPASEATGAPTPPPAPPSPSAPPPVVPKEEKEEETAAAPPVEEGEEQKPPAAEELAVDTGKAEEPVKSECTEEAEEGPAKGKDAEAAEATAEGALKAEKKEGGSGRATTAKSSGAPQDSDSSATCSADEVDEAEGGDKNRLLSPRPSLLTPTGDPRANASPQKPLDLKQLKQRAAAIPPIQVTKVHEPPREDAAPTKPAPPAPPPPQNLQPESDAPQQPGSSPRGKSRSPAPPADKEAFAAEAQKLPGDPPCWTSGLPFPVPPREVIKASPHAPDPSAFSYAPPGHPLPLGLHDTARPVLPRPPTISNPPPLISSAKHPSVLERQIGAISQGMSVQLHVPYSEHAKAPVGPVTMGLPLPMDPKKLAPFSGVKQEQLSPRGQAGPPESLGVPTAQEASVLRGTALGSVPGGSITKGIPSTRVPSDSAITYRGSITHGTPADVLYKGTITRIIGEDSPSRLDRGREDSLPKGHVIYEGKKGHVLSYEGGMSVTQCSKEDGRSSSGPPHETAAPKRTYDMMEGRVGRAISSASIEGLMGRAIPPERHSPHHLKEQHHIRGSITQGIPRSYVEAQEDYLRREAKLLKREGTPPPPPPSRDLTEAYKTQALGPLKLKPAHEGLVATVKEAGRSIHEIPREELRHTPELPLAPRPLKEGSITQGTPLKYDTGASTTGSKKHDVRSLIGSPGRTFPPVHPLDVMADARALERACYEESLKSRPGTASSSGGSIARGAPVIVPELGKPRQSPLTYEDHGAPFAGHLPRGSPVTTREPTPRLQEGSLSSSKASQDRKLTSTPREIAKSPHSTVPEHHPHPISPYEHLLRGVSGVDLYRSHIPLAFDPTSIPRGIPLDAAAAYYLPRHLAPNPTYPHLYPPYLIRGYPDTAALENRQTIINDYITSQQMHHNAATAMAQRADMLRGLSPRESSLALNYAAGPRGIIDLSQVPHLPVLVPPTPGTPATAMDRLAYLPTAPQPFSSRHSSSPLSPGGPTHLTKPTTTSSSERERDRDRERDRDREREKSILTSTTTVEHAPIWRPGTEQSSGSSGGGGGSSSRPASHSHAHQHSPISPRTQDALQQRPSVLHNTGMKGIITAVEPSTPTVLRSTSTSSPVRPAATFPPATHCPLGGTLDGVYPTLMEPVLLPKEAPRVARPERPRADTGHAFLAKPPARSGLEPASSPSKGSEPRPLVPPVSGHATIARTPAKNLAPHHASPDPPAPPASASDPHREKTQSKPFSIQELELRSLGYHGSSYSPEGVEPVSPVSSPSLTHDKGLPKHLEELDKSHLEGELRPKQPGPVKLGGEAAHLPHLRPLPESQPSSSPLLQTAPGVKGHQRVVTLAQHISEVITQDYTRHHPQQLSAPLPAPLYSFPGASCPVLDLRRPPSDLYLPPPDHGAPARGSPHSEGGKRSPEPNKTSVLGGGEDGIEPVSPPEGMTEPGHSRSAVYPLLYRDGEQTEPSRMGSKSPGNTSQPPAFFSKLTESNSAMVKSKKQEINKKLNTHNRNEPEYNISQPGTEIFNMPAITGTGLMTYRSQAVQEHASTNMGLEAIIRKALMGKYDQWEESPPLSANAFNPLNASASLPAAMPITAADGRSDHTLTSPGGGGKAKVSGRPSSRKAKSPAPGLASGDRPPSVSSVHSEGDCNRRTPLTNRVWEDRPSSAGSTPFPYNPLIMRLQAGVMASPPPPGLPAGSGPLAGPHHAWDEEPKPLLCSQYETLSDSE
# [4] = growth suppression of PTEN-null colon cells, dose response, cell-based, HCT116 PTEN knockout (AID 1047); type: functional;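 note: HCT116 colon tumor cells with PTEN knocked out; cells exposed to compound for 60 hours before readout; potency for loss of cell viability measured by luminescence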
# [5] = target: T1, Caspase-3 (Homo sapiens, UniProt P42574); type: functional
# T1 sequence (P42574 whole entry): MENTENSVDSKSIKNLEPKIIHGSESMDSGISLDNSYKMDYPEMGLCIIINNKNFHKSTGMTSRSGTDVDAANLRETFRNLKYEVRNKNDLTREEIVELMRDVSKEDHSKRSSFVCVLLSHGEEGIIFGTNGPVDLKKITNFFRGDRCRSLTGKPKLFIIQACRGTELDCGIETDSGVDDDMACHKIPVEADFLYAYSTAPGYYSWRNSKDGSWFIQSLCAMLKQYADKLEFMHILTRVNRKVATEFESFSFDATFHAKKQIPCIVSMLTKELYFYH
# [6] = target: T2, Sentrin-specific protease 8 (Homo sapiens, UniProt Q96LD8); type: functional;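 note: luminescence read-out of SENP8 inhibition, dose-response confirmation following an ultra-high-throughput screen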
# T2 sequence (Q96LD8 whole entry): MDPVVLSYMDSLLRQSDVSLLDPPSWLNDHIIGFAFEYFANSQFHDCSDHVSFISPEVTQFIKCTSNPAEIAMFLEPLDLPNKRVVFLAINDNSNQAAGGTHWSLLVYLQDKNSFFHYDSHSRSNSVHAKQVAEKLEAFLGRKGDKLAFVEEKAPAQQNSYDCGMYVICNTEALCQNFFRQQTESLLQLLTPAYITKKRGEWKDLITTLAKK
# [7] = target: T3, Sentrin-specific protease 6 (Homo sapiens, UniProt Q9GZR1); assay: SAR Analysis of small molecule inhibitors of Sentrin-specific protease 6 (SENP6) using a Luminescent assay. [Related pubchem assays (depositor defined):AID2582, AID2599]; type: functional
# T3 sequence (Q9GZR1 whole entry): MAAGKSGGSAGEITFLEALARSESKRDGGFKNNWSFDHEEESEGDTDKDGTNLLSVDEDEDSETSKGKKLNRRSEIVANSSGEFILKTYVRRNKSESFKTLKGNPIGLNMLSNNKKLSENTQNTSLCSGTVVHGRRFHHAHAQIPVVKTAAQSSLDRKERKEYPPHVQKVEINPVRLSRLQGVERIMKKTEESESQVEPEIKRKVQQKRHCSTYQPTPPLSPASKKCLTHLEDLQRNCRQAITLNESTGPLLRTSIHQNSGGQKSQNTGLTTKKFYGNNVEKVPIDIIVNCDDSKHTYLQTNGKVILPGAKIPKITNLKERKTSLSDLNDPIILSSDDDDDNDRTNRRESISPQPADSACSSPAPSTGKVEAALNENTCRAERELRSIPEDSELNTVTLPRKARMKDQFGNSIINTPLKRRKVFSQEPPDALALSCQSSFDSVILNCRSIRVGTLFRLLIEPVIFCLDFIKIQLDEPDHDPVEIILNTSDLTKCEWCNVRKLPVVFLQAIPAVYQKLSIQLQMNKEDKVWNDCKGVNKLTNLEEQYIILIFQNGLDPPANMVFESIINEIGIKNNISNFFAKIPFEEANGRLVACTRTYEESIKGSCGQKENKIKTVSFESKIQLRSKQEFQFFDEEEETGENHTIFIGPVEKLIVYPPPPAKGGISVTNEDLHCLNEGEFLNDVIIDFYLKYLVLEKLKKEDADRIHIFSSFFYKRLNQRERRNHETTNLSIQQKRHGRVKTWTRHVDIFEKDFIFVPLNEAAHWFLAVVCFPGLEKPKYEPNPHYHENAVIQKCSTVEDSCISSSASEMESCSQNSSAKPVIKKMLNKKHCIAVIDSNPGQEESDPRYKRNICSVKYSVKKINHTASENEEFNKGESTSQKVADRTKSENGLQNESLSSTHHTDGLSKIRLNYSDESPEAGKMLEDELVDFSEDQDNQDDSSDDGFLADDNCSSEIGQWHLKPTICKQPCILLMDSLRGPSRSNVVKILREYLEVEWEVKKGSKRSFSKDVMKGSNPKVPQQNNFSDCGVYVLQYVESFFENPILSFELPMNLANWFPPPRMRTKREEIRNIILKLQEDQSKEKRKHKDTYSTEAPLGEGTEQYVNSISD
# [8] = target: T1, Caspase-3; assay: SAR Analysis of small molecule inhibitors of Sentrin-specific proteases (SENPs) using a Caspase-3 Selectivity assay. [Related pubchem assays (depositor defined):AID2540, AID2599, AID434973, AID489001]; type: functional
# [9] = target: T4, Sentrin-specific protease 7 (Homo sapiens, UniProt Q9BQF6); type: functional;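 note: Luminescence-based dose-response confirmation of ultra-high-throughput screening hits, measuring inhibition of SENP7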
# T4 sequence (Q9BQF6 whole entry): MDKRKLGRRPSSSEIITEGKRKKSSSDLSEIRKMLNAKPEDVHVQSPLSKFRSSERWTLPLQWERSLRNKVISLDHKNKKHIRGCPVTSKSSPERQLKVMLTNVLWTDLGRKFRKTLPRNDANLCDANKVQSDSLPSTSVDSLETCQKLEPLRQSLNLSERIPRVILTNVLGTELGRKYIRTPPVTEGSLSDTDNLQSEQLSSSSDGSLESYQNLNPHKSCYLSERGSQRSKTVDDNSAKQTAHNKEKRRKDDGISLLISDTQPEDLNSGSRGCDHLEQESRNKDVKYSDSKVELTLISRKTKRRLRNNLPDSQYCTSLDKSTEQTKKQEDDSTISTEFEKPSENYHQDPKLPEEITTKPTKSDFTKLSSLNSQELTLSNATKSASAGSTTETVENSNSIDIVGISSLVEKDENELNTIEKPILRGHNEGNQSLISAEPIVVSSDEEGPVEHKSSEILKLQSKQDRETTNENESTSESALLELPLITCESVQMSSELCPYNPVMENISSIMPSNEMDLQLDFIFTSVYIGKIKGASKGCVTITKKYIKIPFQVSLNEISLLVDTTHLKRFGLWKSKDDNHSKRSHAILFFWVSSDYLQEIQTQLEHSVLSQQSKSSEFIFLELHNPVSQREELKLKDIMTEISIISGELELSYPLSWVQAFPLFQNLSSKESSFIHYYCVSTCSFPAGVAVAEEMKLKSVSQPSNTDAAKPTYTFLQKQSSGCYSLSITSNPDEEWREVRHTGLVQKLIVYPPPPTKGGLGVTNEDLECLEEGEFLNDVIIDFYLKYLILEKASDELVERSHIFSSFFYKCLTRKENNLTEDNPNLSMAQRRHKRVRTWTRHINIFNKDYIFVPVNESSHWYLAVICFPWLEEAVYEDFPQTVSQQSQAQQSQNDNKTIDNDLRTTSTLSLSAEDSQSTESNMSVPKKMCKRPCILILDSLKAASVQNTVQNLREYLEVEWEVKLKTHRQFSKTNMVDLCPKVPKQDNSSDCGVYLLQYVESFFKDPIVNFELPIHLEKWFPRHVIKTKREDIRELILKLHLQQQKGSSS
# [10] = target: T4, Sentrin-specific protease 7; assay: SENP7 protease inhibitors, SAR follow-up, biochemical, luminescence (AID 504497); type: functional
# [11] = growth suppression of beta-catenin-knockout colon cells, dose response, cell-based, HCT116, human colon tumor (AID 1045); type: functional;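 note: HCT116 colon tumor cells with beta catenin knocked out; cells exposed to compound for 60 hours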
# [12] = target: Photoreceptor-specific nuclear receptor (Homo sapiens, UniProt Q9Y5X4); assay: NR2E3 inverse agonists, dose response, biochemical, TR-FRET (AID 463256); type: functional
# Sequence of Photoreceptor-specific nuclear receptor (Q9Y5X4 whole entry): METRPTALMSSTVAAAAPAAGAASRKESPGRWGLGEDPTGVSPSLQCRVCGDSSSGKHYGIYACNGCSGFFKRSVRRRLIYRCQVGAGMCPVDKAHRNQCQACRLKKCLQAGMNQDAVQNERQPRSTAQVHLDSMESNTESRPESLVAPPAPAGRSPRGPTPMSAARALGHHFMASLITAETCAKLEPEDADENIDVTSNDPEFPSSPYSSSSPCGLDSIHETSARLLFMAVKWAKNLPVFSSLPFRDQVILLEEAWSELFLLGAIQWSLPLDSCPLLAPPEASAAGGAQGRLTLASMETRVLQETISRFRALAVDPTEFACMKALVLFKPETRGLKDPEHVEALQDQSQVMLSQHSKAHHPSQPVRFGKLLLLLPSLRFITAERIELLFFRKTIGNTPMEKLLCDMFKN
# [13] = target: T3, Sentrin-specific protease 6; type: functional
# [14] = target: T2, Sentrin-specific protease 8; assay: SENP8 protease inhibitors, SAR follow-up, biochemical, luminescence (AID 504501); type: functional
# [15] = target: T5, Bcl-2-related protein A1 (Mus musculus, UniProt Q07440); assay: Bfl-1 inhibitors blocking BH3 peptide binding, confirmation, biochemical, TR-FRET, mouse Bfl-1 (AID 621);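 note: TR-FRET binding of GST-Bfl-1 to FITC-labelled Bid peptide via terbium antibody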
# T5 sequence (Q07440 whole entry): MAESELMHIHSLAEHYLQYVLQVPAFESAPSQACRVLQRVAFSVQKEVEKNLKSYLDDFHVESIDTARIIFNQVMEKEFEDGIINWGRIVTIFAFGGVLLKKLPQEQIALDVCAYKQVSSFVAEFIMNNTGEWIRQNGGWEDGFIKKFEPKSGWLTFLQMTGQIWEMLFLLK
# [16] = target: T5, Bcl-2-related protein A1; assay: Bfl-1 binding inhibitors, SAR follow-up, biochemical, fluorescence polarization (AID 1070)
# [17] = target: Glyceraldehyde-3-phosphate dehydrogenase (Homo sapiens, UniProt P04406)
# Sequence of Glyceraldehyde-3-phosphate dehydrogenase (P04406 whole entry): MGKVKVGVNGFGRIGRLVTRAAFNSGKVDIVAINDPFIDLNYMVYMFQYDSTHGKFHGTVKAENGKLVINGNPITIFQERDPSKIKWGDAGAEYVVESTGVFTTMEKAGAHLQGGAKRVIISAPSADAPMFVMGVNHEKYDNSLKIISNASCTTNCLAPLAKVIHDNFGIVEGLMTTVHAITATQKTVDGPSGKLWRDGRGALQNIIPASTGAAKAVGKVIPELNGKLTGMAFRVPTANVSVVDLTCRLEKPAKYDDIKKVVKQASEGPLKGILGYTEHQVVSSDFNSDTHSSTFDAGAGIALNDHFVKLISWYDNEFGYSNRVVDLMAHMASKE
structure (smiles),measurement,setting,value
Cc1cc(C(=O)Nc2sc3c(c2C#N)CCC(C)C3)cs1 (configuration not stated),EC50,[1],> 20 µM (not active)
same,EC50,[2],> 20 µM (not active)
Cc1cc2nc(-c3ccc(SCC(=O)Nc4ccc(S(=O)(=O)NC5CC5)cc4)nc3)[nH]c2cc1C,IC50,[3],4.15 µM (active)
same,EC50,[4],22.7 µM (active)
same,IC50,[5],21.3 µM (active)
same,IC50,[6],> 100 µM (inactive)
same,IC50,[7],> 99 µM (inactive)
same,IC50,[8],14.4 µM (active)
same,IC50,[9],2.43 µM (active)
same,IC50,[10],2.75 µM (active)
same,EC50,[11],24.7 µM (active)
same,IC50,[12],> 39.8 µM (not active)
same,IC50,[13],> 100 µM (inactive)
same,IC50,[14],> 99 µM (inactive)
CCN1CCN(C2=C(Cl)C(=O)N(c3ccc([N+](=O)[O-])cc3)C2=O)CC1,IC50,[15],0.83 µM (active)
same,IC50,[16],0.565 µM (active)
same,IC50,[17],> 100 µM (not active)
